From paper PMC4112042, “Phase 1 dose-escalation study of the PARP inhibitor CEP-9722 as monotherapy or in combination with temozolomide in patients with solid tumors” (Cancer Chemotherapy and Pharmacology, 2014)

What was measured:
[1] = tested on: breast and ovarian cancer patients with BRCA mutations; set-up: method as in PMID 20609467, PMID 20609468; conditions: monotherapy; cited from earlier work
[2] = Plasma pharmacokinetics of CEP-8983 after oral CEP-9722; assay type: in vivo, human; conditions: patients
Procedure: Pharmacokinetic serum samples were collected on day 1 of cycle 1 pre-dose and 0.5, 1, 2, 3, 4, 6, 8, 10, and 24 h post-dose; and on day 5 of cycle 1 and cycle 2 pre-dose, and 0.5, 1, 2, 3, 4, 6, 8, 10, 24, and 48 h post-dose. Urine samples were obtained on day 1 of cycle 1 during 4 intervals in the 24 h following study drug administration. Pharmacokinetic parameters (area under the plasma drug concentration–time curve from time 0 to infinity [AUC0–∞], AUC from time 0 to the time of the last measurable drug concentration [AUC0–t], AUC for 1 dosing interval [AUCτ] following multiple doses, maximum observed plasma concentration [C max], and time to maximum observed plasma concentration [T max]) were summarized at each visit (day 1 of cycle 1 and day 5 of cycles 1 and 2) using descriptive statistics.

[3] = tested on: patients with advanced solid tumors; experiment: Phase 1 dose-escalation: safety, DLT and MTD
Procedure: The study consisted of a screening period to determine patient eligibility, a 14-day cycle in which CEP-9722 was administered once daily as monotherapy, and subsequent 28-day cycles in which CEP-9722 and temozolomide were administered as combination therapy. In cycle 1, the first patient in each dosing cohort received CEP-9722 on days 1, 3, 4, and 5, while other patients in each cohort received CEP-9722 on days 1–5. In cycle 2, patients received CEP-9722 and temozolomide on days 1–5 (Supplemental Fig.). CEP-9722 was escalated from a starting dose of 150 mg/day up to 1,000 mg/day, and temozolomide was given at the dose of 150 mg/m^2/day at all dose levels of CEP-9722. Both CEP-9722 and temozolomide were administered in the fasted state.
Patients were enrolled in cohorts of 3. Enrollment in the next cohort commenced when the third patient in the current cohort had completed day 28 of cycle 2 without a dose-limiting toxicity (DLT).
Safety was assessed using adverse event data, clinical laboratory test results, vital signs measurement, ECG findings, physical examination findings, ECOG performance status, and concomitant medication usage.

[4] = tested on: PARP in peripheral blood mononuclear cells (PBMCs); experiment: PAR ELISA in PBMCs (PARP inhibition, pharmacodynamics); assay type: in vivo, human
Procedure: Pharmacodynamics were assessed by the measurement of PAR concentrations in PBMCs. PBMCs were isolated at site, and the frozen cell pellet was sent to a central laboratory (Trevigen Inc., Gaithersburg, MD, USA) for processing and analysis by PAR enzyme-linked immunosorbent assay (ELISA). Pharmacodynamic samples were collected on 2 consecutive days at screening visits and on days 1, 5 (pre-dose and 2 h [cycle 1 only], 6 h, and 24 h post-dose), and 8 (at the time of hematology laboratory testing). The PAR concentrations in the 2 screening samples and the day 1 pre-dose sample were averaged to provide a baseline value, and the percentage inhibition from baseline was calculated in the post-dose samples.

advanced solid tumors = experiment: Best tumor response according to RECIST 1.0; assay type: in vivo, human
Procedure: Tumor assessment was performed within 4 weeks before the first dose of study drug and within the fourth week of cycle 2 using computed tomography or magnetic resonance imaging with contrast. In patients who continued treatment, tumor assessment was performed every 2 cycles and at the end of treatment visit, at the discretion of the investigator.

[5] = tested on: patients with metastatic melanoma; conditions: phase 2, metastatic melanoma, combination with temozolomide; cited from earlier work
[6] = cycle 1, single-agent CEP-9722, total, all dose levels (N=26)
[7] = cycles ≥2, CEP-9722 combined with temozolomide, 150 mg/day (N=3)
[8] = cycles ≥2, CEP-9722 combined with temozolomide, 300 mg/day (N=6)
[9] = cycles ≥2, CEP-9722 combined with temozolomide, 500 mg/day (N=3)
[10] = cycles ≥2, CEP-9722 combined with temozolomide, 750 mg/day (N=11)
[11] = cycles ≥2, CEP-9722 combined with temozolomide, 1,000 mg/day (N=3)
[12] = cohort 1, 150 mg/day, 2 evaluated
[13] = cohort 2, 300 mg/day, 6 evaluated
[14] = cohort 3, 500 mg/day, 3 evaluated
[15] = cohort 4, 750 mg/day, 9 evaluated
[16] = cohort 5, 1,000 mg/day, 2 evaluated

For `O=C(c1cc(Cc2n[nH]c(=O)c3ccccc23)ccc1F)N1CCN(C(=O)C2CC2)CC1` [olaparib], the RECIST responses [1] is given as 30–40%.
For `COc1cccc2[nH]c3c4c(c5c(c3c12)C(=O)N(CN1CCN(C)CC1)C5=O)CCC4` [CEP-9722], the “conversion of CEP-9722 into its active form” value [2] was “rapid”, the “Anorexia (treatment-related adverse event, all grades)” value [3, 6] was 3 (12) N patients (%) and the “Asthenia (treatment-related adverse event, all grades)” value [3, 6] was 5 (19) N patients (%). The “Blood creatinine phosphokinase increased (treatment-related adverse event, all grades)” value [3, 6] was 2 (8) N patients (%), the “Constipation (treatment-related adverse event, all grades)” value [3, 6] was 2 (8) N patients (%) and the “Diarrhea (treatment-related adverse event, all grades)” value [3, 6] was 7 (27) N patients (%). For the same molecule, the “Fatigue (treatment-related adverse event, all grades)” value [3, 6] was 4 (15) N patients (%), the “Headache (treatment-related adverse event, all grades)” value [3, 6] was 10 (38) N patients (%) and the “Nausea (treatment-related adverse event, all grades)” value [3, 6] was 12 (46) N patients (%). For the same molecule, the “Vomiting (treatment-related adverse event, all grades)” value [3, 6] was 7 (27) N patients (%), the “Anemia (treatment-related adverse event, all grades)” value [3, 7] was 0 N patients (%) and the “Anorexia (treatment-related adverse event, all grades)” value [3, 7] was 0 N patients (%). For the same molecule, the “Aspartate aminotransferase increased (treatment-related adverse event, all grades)” value (shortened to “Aspartate aminotransferase increased”) [3, 7] was 0 N patients (%), the “Asthenia (treatment-related adverse event, all grades)” value [3, 7] was 0 N patients (%) and the “Constipation (treatment-related adverse event, all grades)” value [3, 7] was 0 N patients (%). For the same molecule, the “Diarrhea (treatment-related adverse event, all grades)” value [3, 7] was 0 N patients (%), the “Dyspepsia (treatment-related adverse event, all grades)” value (“Dyspepsia” below) [3, 7] was 0 N patients (%) and the “Fatigue (treatment-related adverse event, all grades)” value [3, 7] was 0 N patients (%). For the same molecule, the “Gamma-glutamyltransferase increased (treatment-related adverse event, all grades)” value (shortened to “Gamma-glutamyltransferase increased”) [3, 7] was 0 N patients (%), the “Anemia (treatment-related adverse event, all grades)” value [3, 8] was 0 N patients (%) and the “Anorexia (treatment-related adverse event, all grades)” value [3, 8] was 1 (17) N patients (%). For the same molecule, the “Aspartate aminotransferase increased” value [3, 8] was 0 N patients (%), the “Asthenia (treatment-related adverse event, all grades)” value [3, 8] was 0 N patients (%) and the “Constipation (treatment-related adverse event, all grades)” value [3, 8] was 0 N patients (%). The “Diarrhea (treatment-related adverse event, all grades)” value [3, 8] was 0 N patients (%), the “Dyspepsia” value [3, 8] was 0 N patients (%) and the “Gamma-glutamyltransferase increased” value [3, 8] was 0 N patients (%). For the same molecule, the “Anemia (treatment-related adverse event, all grades)” value [3, 9] was 1 (33) N patients (%), the “Anorexia (treatment-related adverse event, all grades)” value [3, 9] was 0 N patients (%) and the “Aspartate aminotransferase increased” value [3, 9] was 1 (33) N patients (%). For the same molecule, the “Asthenia (treatment-related adverse event, all grades)” value [3, 9] was 2 (67) N patients (%), the “Constipation (treatment-related adverse event, all grades)” value [3, 9] was 0 N patients (%) and the “Diarrhea (treatment-related adverse event, all grades)” value [3, 9] was 0 N patients (%). For the same molecule, the “Dyspepsia” value [3, 9] was 0 N patients (%), the “Fatigue (treatment-related adverse event, all grades)” value [3, 9] was 0 N patients (%) and the “Gamma-glutamyltransferase increased” value [3, 9] was 1 (33) N patients (%). For the same molecule, the “Anemia (treatment-related adverse event, all grades)” value [3, 10] was 1 (9) N patients (%), the “Anorexia (treatment-related adverse event, all grades)” value [3, 10] was 1 (9) N patients (%) and the “Aspartate aminotransferase increased” value [3, 10] was 1 (9) N patients (%). The “Asthenia (treatment-related adverse event, all grades)” value [3, 10] was 4 (36) N patients (%), the “Diarrhea (treatment-related adverse event, all grades)” value [3, 10] was 3 (27) N patients (%) and the “Dyspepsia” value [3, 10] was 2 (18) N patients (%). For the same molecule, the “Fatigue (treatment-related adverse event, all grades)” value [3, 10] was 4 (36) N patients (%), the “Gamma-glutamyltransferase increased” value [3, 10] was 2 (18) N patients (%) and the “Anemia (treatment-related adverse event, all grades)” value [3, 11] was 0 N patients (%). The “Aspartate aminotransferase increased” value [3, 11] was 0 N patients (%), the “Asthenia (treatment-related adverse event, all grades)” value [3, 11] was 0 N patients (%) and the “Constipation (treatment-related adverse event, all grades)” value [3, 11] was 1 (33) N patients (%). The “Dyspepsia” value [3, 11] was 0 N patients (%), the “Fatigue (treatment-related adverse event, all grades)” value [3, 11] was 1 N patients (%) and the “Gamma-glutamyltransferase increased” value [3, 11] was 0 N patients (%). For the same molecule, the “abdominal pain, adverse event” value ([3]; human, in vivo) was 35%, the “anemia, adverse event” value ([3]; human, in vivo) was 23% and the “anorexia, adverse event” value ([3]; human, in vivo) was 35%. The “asthenia, adverse event” value ([3]; human, in vivo) was 42%, the “constipation, adverse event” value ([3]; human, in vivo) was 50% and the “diarrhea, adverse event” value ([3]; human, in vivo) was 42%. For the same molecule, the “fatigue, adverse event” value ([3]; human, in vivo) was 31%, the “grade 3–4 lymphopenia (laboratory)” value ([3]; human, in vivo) was 5 patients and the “headache, adverse event” value ([3]; human, in vivo) was 50%. The “nausea, adverse event” value ([3]; human, in vivo) was 77%, the “patients with treatment-related adverse events (TRAEs)” value ([3]; human, in vivo) was 24 (92 %) patients (%) and the “recommended phase 2 dose” value ([3]; human, in vivo) was 750 mg/day. The “vomiting, adverse event” value ([3]; human, in vivo) was 65%, the “Abdominal pain (treatment-related adverse event, all grades)” value ([3]; human, in vivo, 14 day) was 2 (8) N patients (%) and the “central review of ECGs” value ([3]; in vivo) was “no clinically significant abnormalities”. The “patients who withdrew due to adverse events” value ([3]; in vivo) was “Four patients”, the “patients with dose delays due to hematological toxicity” value ([3]; in vivo) was “three patients” and the “patients with grade 3–4 laboratory hematologic toxicities” value ([3]; in vivo) was “Six patients”. The “maximum tolerated dose (MTD)” value ([3]; with temozolomide 150 mg/m^2) was 750 mg/day, the “PAR concentrations in PBMCs relative to baseline” value ([4]; 2 and 6 h post-dose, cycle 1, without temozolomide) was “reduction in PAR concentrations relative to baseline was observed” and the “reduction in PAR concentrations in PBMCs” value ([4]; 6 h post-dose, cycle 2, with temozolomide) was “less marked”. For the same molecule, the “inhibitory effects on PAR production” value ([4]; 24 h post-dose sample) was “lost”, the Partial response (advanced solid tumors; [12]) was 0 patients and the Progressive disease (advanced solid tumors; [12]) was 2 patients. It also gave a Stable disease (advanced solid tumors; [12]) of 0 patients, a Partial response (advanced solid tumors; [13]) of 0 patients and a Progressive disease (advanced solid tumors; [13]) of 5 patients. For the same molecule, the Stable disease (advanced solid tumors; [13]) was 1 patients, the Partial response (advanced solid tumors; [14]) was 0 patients and the Progressive disease (advanced solid tumors; [14]) was 1 patients. The Stable disease (advanced solid tumors; [14]) was 2 patients, the Partial response (advanced solid tumors; [15]) was 0 patients and the Progressive disease (advanced solid tumors; [15]) was 8 patients. For the same molecule, the Stable disease (advanced solid tumors; [15]) was 1 patients, the Partial response (advanced solid tumors; [16]) was 1 patients and the Progressive disease (advanced solid tumors; [16]) was 1 patients. For the same molecule, the Stable disease (advanced solid tumors; [16]) was 0 patients, the “reduction in target lesions (RECIST) in the patient with partial response” value (advanced solid tumors; melanoma patient, 1,000 mg/day with temozolomide) was 58% and the “duration of partial response” value (advanced solid tumors; melanoma patient, 1,000 mg/day with temozolomide, first observed after 6 cycles) was 5.8 months. The Progressive disease (advanced solid tumors; total, all cohorts, 22 evaluated) was 17 patients.
For `CNCc1ccc(-c2[nH]c3cc(F)cc4c3c2CCNC4=O)cc1` [rucaparib], the “patients requiring a reduction in the dose of temozolomide due to enhanced myelosuppression” value [5] is listed as “approximately half”.
